The assay has as its system CALHM1. The assay is described as follows: CALHM1 N-glycosylation, western blot of transfected HEK293 cells. In kind it is cell-based, human. The following applies: HEK293 cells transfected with Myc-CALHM1 for six hours, 10 μg/ml tunicamycin, anti-Myc WB. On the procedure:
Western blotting (WB) and immunoprecipitation (IP) assays. For WB, cells were washed with PBS and solubilized in ice-cold HEPES buffer (25 mM HEPES, pH 7.4, 150 mM NaCl, 1X Complete protease inhibitor cocktail, Roche) containing 1% SDS. Ten micrograms of extracts was analyzed by SDS-PAGE. A standard ECL detection procedure was then used. For multimerization analyses and IP, cells were harvested six hours after transfection with the indicated CALHM1 cDNAs. Cells were then solubilized for 2 h at 4° C. in HEPES buffer containing 1% Nonidet P-40. Cell extracts were pre-cleared by centrifugation at 10,000 rpm for 5 min. For multimerization analyses, cell extracts were analyzed by WB in the absence (non-reducing conditions) or presence of 5% β-mercaptoethanol (reducing conditions). For IP, supernatants were immunoprecipitated with immobilized anti-Myc antibody, as per supplier's instructions (ProFound Mammalian c-Myc Tag IP Kit, Pierce). Total extracts and immunoprecipitated proteins were then analyzed by WB.
CALHM1 deglycosylation. […] CALHM1-transfected HT-22 cells were solubilized and incubated for 16 h at 37° C. in digestion buffer (50 mM NaH2PO4, pH 7.4, 20 mM EDTA, 0.2% SDS, and 1% β-mercaptoethanol) in the absence or presence of PNGase F. Cell lysates were then analyzed by WB using anti-Myc antibody, as described above.
In general terms: Immunoblotting shows a protein as a band on a membrane.

In the case of tunicamycin, the “appearance of the CALHM1 band of higher molecular weight (N-glycosylated form)” value is “completely inhibited”.

The record behind these values is patent US8420309B2, “Method of screening compounds using CALHM (FAM26C)” (The Feinstein for Medical Research, priority 2007, dated 2013).
